# According to ChEMBL document CHEMBL4265965, “Dichloroacetophenones targeting at pyruvate dehydrogenase kinase 1 with improved selectivity and antiproliferative activity: Synthesis and structure-activity relationships” (Bioorg Med Chem Lett, 2018):
# The source made the active and inactive calls. No cut-off for these calls is given here.
# Tests used:
# NCI-H1975 [1] = assay: Antiproliferative activity against human NCI-H1975 cells assessed as inhibition of cell proliferation at 12 uM after 72 hrs by MTT assay relative to control; format: functional; conditions: NCI-H1975, 72 h
# NCI-H1975 [2] = assay: Antiproliferative activity against human NCI-H1975 cells assessed as inhibition of cell proliferation at 6 uM after 72 hrs by MTT assay relative to control; format: functional; conditions: NCI-H1975, 72 h
# NCI-H1975 [3] = assay: Antiproliferative activity against human NCI-H1975 cells assessed as inhibition of cell proliferation at 2 uM after 72 hrs by MTT assay relative to control; format: functional; conditions: for inhibition at 2 µM: NCI-H1975, 72 h
# NCI-H1650 [4] = assay: Antiproliferative activity against human NCI-H1650 cells assessed as inhibition of cell proliferation at 12 uM after 72 hrs by MTT assay relative to control; format: functional; conditions: NCI-H1650, 72 h
# NCI-H1650 [5] = assay: Antiproliferative activity against human NCI-H1650 cells assessed as inhibition of cell proliferation at 6 uM after 72 hrs by MTT assay relative to control; format: functional; conditions: NCI-H1650, 72 h
# NCI-H1650 [6] = assay: Antiproliferative activity against human NCI-H1650 cells assessed as inhibition of cell proliferation at 2 uM after 72 hrs by MTT assay relative to control; format: functional; conditions: for inhibition at 2 µM: NCI-H1650, 72 h
# A549 [7] = assay: Antiproliferative activity against human A549 cells assessed as inhibition of cell proliferation at 12 uM after 72 hrs by MTT assay relative to control; format: functional; conditions: A549, 72 h
# A549 [8] = assay: Antiproliferative activity against human A549 cells assessed as inhibition of cell proliferation at 6 uM after 72 hrs by MTT assay relative to control; format: functional; conditions: A549, 72 h
# A549 [9] = assay: Antiproliferative activity against human A549 cells assessed as inhibition of cell proliferation at 2 uM after 72 hrs by MTT assay relative to control; format: functional; conditions: for inhibition at 2 µM: A549, 72 h
# [10] = biological target: T1, [Pyruvate dehydrogenase (acetyl-transferring)] kinase isozyme 1, mitochondrial (Homo sapiens, UniProt Q15118); assay: Inhibition of recombinant human N-terminal His6/Sumo-tagged PDK1 (29 to 436 residues) expressed in Escherichia coli BL21 at 1 uM by kinase-glo luminescence assay relative to control
# [11] = biological target: T1, [Pyruvate dehydrogenase (acetyl-transferring)] kinase isozyme 1, mitochondrial; assay: Inhibition of PDK1 in human NCI-H1975 cells assessed as reduction in pyruvate dehydrogenase phosphorylation at 10 uM after 24 hrs by Western blot analysis; format: cell-based
# NCI-H1975 [12] = assay: Antiproliferative activity against human NCI-H1975 cells assessed as inhibition of cell proliferation after 72 hrs by MTT assay; format: functional, cell-based; conditions: NCI-H1975, 72 h
# Sus scrofa = organism: Sus scrofa; assay: Inhibition of porcine PDK1 assessed as activation of pyruvate dehydrogenase complex at 1 uM measured after 3 mins
Compound,inhibition at 12 µM (NCI-H1975 [1]),inhibition at 6 µM (NCI-H1975 [2]),inhibition at 2 µM (NCI-H1975 [3]),inhibition at 12 µM (NCI-H1650 [4]),inhibition at 6 µM (NCI-H1650 [5]),inhibition at 2 µM (NCI-H1650 [6]),inhibition at 12 µM (A549 [7]),inhibition at 6 µM (A549 [8]),inhibition at 2 µM (A549 [9]),inhibition [10],inhibition [11],IC50 (NCI-H1975 [12]),inhibition (Sus scrofa),inhibition (NCI-H1975 [3]),inhibition (NCI-H1650 [6]),inhibition (A549 [9])
CC(C)c1ccc(C(=O)C(Cl)Cl)cc1,96.7%,96.1%,60.1%,91.2%,65.3%,26.6%,88.1%,65.8%,24.4%,59.9%,Active,–,–,–,–,–
CCCCOc1ccc(C(=O)C(Cl)Cl)cc1,97.4%,92%,46.5%,97.6%,70.7%,30.7%,67%,46.6%,20.9%,19.7 to 67.9%,Active,–,–,–,–,–
CCCOc1ccc(C(=O)C(Cl)Cl)cc1,97.7%,93%,44.3%,95.3%,66%,27.4%,79.7%,58.9%,8.4%,19.7 to 67.9%,Active,2 µM,–,–,–,–
O=C(c1ccc(OCCCBr)cc1)C(Cl)Cl,99.9%,99.6%,69.8%,92.5%,65.4%,27.9%,98.4%,80.1%,21.7%,19.7 to 67.9%,Active,–,–,–,–,–
CCCCCOc1ccc(C(=O)C(Cl)Cl)cc1,98.5%,96.6%,57.5%,98.2%,81.5%,32.8%,85%,60.4%,20.2%,19.7 to 67.9%,Active,–,–,–,–,–
COc1ccc(C(=O)C(Cl)Cl)cc1[N+](=O)[O-],97.4%,89.4%,22.3%,97.2%,75.7%,30%,81.8%,46.7%,17.7%,Active,–,–,Active,–,–,–
CC(C)Oc1ccc(C(=O)CCl)cc1[N+](=O)[O-],85.6%,27.7%,–,51.4%,24.8%,–,38.9%,14.8%,–,Active,–,–,Active,inactive,inactive,inactive
O=C(c1cccc(CCl)c1)C(Cl)Cl,99.5%,99.3%,99%,100%,100%,97.6%,100%,99.5%,73.3%,15.1%,–,0.2 µM,–,–,–,–
CC1CCOc2ccc(C(=O)C(Cl)Cl)cc21 (stereo unspecified),99.6%,98%,69.4%,94.8%,67.3%,27%,93.4%,77.7%,24.1%,19.7 to 67.9%,Active,–,–,–,–,–
O=C(c1cccs1)C(Cl)Cl,95.8%,62.1%,26.8%,73.4%,42.5%,16.8%,71.1%,34.7%,6.9%,inactive,–,–,3.9%,–,–,–
